The record followed here is patent US20230373985A1 (Origenis Gmbh, priority 2020, published 2023).

Test [1] addresses T1, wt human TYK2, catalytic site (Homo sapiens, UniProt P29597).
T1 construct: wt human TYK2, catalytic site; purchased SignalChem
T1 sequence (P29597 897-1176 limits assumed): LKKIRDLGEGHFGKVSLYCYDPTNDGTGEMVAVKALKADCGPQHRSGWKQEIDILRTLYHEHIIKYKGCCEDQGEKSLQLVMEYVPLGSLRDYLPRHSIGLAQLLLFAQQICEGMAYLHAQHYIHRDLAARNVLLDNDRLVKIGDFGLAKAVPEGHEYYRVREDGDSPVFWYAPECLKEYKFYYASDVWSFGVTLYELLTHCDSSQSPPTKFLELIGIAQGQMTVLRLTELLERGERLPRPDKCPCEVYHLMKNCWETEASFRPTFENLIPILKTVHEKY
In words: HTRF KinEASE assay, TYK2. It is filed as biochemical. The following applies: 1 μM ATP; read-out: IC50, Activity Toward TYK2. Summed up:
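Kinase reaction run at room temperature for at least 30 min: 2 nM TYK2 with 1 μM ATP, or 1 nM JAK2 with 100 μM ATP, each with 1 μM biotin-TK substrate. Phosphorylation detected by HTRF (60 min antibody/XL665) and evaluated from emission ratios.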

The target in test [2] is T2, wt human NUAK1, full length (Homo sapiens, UniProt O60285).
T2 construct: 8 nM wt human NUAK1, full length (ThermoFisher/USA); purchased ThermoFisher
T2 sequence (O60285 1-661): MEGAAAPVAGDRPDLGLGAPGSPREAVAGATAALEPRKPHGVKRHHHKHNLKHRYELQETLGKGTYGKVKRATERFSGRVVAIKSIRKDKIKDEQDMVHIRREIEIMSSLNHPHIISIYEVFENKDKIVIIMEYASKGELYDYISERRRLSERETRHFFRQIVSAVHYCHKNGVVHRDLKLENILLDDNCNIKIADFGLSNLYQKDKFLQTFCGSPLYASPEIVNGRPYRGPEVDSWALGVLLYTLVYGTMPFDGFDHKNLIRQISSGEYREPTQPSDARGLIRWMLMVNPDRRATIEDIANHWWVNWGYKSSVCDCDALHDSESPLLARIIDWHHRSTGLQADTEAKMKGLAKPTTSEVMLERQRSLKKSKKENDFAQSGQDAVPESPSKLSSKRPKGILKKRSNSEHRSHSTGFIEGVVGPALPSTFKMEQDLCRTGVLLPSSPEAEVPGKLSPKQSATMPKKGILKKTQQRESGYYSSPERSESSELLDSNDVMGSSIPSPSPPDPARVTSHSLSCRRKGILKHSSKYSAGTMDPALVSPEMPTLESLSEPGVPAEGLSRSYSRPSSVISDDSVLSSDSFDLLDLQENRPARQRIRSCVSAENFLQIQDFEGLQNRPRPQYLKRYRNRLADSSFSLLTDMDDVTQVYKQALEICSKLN
In words: TR-FRET LanthaScreen Eu Kinase Binding Assay, NUAK1. Particulars: read-out: IC50, Activity Toward NUAK1. As for the experimental part:
The basic protocol for TR-FRET LanthaScreen Eu Kinase Binding Assay inhibitor studies were performed as follows. LanthaScreen Kinase Binding Assays (ThermoFisher/USA) to evaluate inhibitors were performed by addition of 5 μL of test compound in corresponding DMSO dilutions/5 μl of kinase/antibody mixture, 5 μL of tracer into 384 well small volume plates. After incubation for 1 hour at room temperature, plates were read. Data analysis of emission ratios was according LanthaScreen Eu Kinase Binding Assay protocol.
Kinase and assay components were adjusted to final concentrations according to kit protocol. For LRRK2: 5 nM wt human LRRK2, catalytic site, or G2019S human LRRK2, catalytic site (ThermoFisher/USA), 2 nM Eu-Anti-GST Antibody, 10 nM Kinase Tracer 236 in 1× Kinase Buffer A. For NUAK1: 8 nM wt human NUAK1, full length (ThermoFisher/USA), 2 nM Eu-Anti-His Antibody, 5 nM Kinase Tracer 236 in 1× Kinase Buffer A.
(In general: Time-resolved FRET reads energy transfer from a long-lived donor to a nearby acceptor.)

Test [3] deals with T3, wt human JAK1, catalytic site (Homo sapiens, UniProt P23458).
T3 construct: wt human JAK1, catalytic site; purchased ThermoFisher
T3 sequence (P23458 875-1153 limits assumed): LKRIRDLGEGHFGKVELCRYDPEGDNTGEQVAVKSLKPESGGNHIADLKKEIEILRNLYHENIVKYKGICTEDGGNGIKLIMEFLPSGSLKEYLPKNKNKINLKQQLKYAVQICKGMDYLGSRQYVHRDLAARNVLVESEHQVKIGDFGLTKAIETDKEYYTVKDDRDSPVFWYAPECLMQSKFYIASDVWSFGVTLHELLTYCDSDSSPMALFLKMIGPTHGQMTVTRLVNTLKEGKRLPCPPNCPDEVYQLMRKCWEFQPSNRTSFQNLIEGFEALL
Briefly: HTRF KinEASE assay, JAK1. Type of test: biochemical. Particulars: 2.5 μM ATP; read-out: IC50, Activity Toward JAK1. Summed up:
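Compounds in DMSO dilution were mixed with kinase, biotin-TK substrate and ATP and reacted for ≥30 min at room temperature. Detection reagents (antibody, streptavidin-XL665) were read 60 min later as HTRF, with emission ratios analysed per KinEASE protocol.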

Test [4] has as its target T4, wt human LRRK2, catalytic site (Homo sapiens, UniProt Q5S007).
T4 construct: 5 nM wt human LRRK2, catalytic site; purchased ThermoFisher
Briefly: TR-FRET LanthaScreen Eu Kinase Binding Assay, LRRK2 wt. The following applies: one range stated for wt and G2019, read-out: IC50, Activity Toward LRRK2(Wt). Summed up: (§1)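 Kinase Buffer A holding, as final levels, 8 nM full-length NUAK1, 2 nM Eu-anti-His antibody and 5 nM Tracer 236, or 5 nM LRRK2 catalytic site (wt or G2019S), 2 nM Eu-anti-GST and 10 nM Tracer 236. Compound added, then 1 h at room temperature before TR-FRET ratio readout.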

The target in test [5] is T5, G2019S human LRRK2, catalytic site (Homo sapiens, UniProt Q5S007, G2019S).
T5 construct: G2019S human LRRK2, catalytic site; purchased ThermoFisher
T5 sequence (Q5S007 970-2527 G2019S limits assumed): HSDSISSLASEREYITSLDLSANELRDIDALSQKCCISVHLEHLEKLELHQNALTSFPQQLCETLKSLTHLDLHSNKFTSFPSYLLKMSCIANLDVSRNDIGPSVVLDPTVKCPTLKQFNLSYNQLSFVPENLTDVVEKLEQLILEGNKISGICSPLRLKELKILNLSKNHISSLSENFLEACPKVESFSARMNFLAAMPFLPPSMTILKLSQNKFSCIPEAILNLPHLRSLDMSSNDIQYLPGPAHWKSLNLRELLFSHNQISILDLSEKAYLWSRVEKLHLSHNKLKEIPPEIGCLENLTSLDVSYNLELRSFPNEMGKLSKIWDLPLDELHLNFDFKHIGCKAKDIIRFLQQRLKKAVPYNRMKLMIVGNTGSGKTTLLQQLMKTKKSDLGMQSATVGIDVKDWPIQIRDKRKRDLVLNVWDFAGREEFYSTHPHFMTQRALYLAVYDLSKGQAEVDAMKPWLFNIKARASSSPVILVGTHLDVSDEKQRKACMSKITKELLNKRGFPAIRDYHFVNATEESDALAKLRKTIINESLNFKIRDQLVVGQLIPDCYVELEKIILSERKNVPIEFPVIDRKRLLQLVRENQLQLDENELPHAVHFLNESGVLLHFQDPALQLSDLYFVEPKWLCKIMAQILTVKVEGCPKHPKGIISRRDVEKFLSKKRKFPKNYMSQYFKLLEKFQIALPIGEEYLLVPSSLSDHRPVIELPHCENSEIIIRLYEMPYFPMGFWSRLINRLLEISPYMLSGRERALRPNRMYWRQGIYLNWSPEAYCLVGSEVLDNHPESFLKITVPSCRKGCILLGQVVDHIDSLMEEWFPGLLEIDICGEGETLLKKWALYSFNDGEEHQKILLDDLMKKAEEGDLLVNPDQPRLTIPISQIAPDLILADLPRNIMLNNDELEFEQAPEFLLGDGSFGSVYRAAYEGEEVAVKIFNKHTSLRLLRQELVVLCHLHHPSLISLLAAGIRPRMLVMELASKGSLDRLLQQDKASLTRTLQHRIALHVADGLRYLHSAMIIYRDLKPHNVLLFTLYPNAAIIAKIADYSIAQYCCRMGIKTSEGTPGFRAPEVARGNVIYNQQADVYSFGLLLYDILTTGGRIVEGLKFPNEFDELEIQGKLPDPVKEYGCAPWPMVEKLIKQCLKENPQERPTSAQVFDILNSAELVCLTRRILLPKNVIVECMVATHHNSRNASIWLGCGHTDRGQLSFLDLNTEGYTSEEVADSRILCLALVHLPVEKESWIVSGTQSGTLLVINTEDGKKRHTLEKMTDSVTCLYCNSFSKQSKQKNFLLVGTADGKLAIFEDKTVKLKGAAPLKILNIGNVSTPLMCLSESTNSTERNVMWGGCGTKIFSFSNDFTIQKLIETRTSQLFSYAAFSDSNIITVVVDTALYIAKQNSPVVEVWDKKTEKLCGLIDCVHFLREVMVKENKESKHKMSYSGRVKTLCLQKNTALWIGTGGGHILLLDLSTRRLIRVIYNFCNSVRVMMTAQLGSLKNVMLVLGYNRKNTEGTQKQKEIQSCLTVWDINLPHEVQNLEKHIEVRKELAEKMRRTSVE
Briefly: TR-FRET LanthaScreen Eu Kinase Binding Assay, LRRK2 G2019S. The following applies: LRRK2(G2019); one range stated for wt and G2019; read-out: IC50, Activity Toward LRRK2(G2019). Summed up:
as §1

T4 sequence (Q5S007 970-2527 limits assumed): as the sequence (Q5S007 970-2527 G2019S limits assumed) above, with S1050G counted along it

Take `Cc1nc2cc(Nc3cn(-c4c(F)cccc4Cl)nc3C(N)=O)ccc2n1C` [compound 44, 1-(2-chloro-6-fluorophenyl)-4-((1,2-dimethyl-1H-benzo[d]imidazol-5-yl)amino)-1H-pyrazole-3-carboxamide]: the figures for the IC50 in test [1], in test [2] and in test [3] were 10 to 100 nM, 100 to 1000 nM and 100 to 1000 nM, respectively.

Turning to `CN1CCCN(C(=O)c2ccc(Nc3cn(-c4c(Cl)cccc4Cl)nc3C(N)=O)cc2)CC1` [compound 91, 1-(2,6-dichlorophenyl)-4-((4-(4-methyl-1,4-diazepane-1-carbonyl)phenyl)amino)-1H-pyrazole-3-carboxamide], the IC50 – broadly, the concentration at which inhibition is half-maximal – in test [1] is less than 10 nM; in test [2] it was 100 to 1000 nM; in test [3], 10 to 100 nM.

For the compound `CN(C)CCn1cnnc1-c1ccc(Nc2cn(-c3c(Cl)cccc3Cl)nc2C(N)=O)cc1` [compound 214, 1-(2,6-dichlorophenyl)-4-((4-(4-(2-(dimethylamino)ethyl)-4H-1,2,4-triazol-3-yl)phenyl)amino)-1H-pyrazole-3-carboxamide], the IC50 in test [1] is less than 10 nM; in test [2], 100 to 1000 nM; in test [3] it was 10 to 100 nM.

For `CN1CCC(Oc2ccc(Nc3cn(-c4c(Cl)cccc4Cl)nc3C(N)=O)cc2)CC1` [compound 237, 1-(2,6-dichlorophenyl)-4-((4-((1-methylpiperidin-4-yl)oxy)phenyl)amino)-1H-pyrazole-3-carboxamide], the IC50 in test [1] is less than 10 nM; in test [2], 100 to 1000 nM; in test [3], 100 to 1000 nM.

Consider `CN(C)CCn1ccnc1-c1ccc(Nc2cn(-c3c(Cl)cccc3Cl)nc2C(N)=O)cc1` [compound 251, 1-(2,6-dichlorophenyl)-4-((4-(1-(2-(dimethylamino)ethyl)-1H-imidazol-2-yl)phenyl)amino)-1H-pyrazole-3-carboxamide], for which the results for the IC50 in test [1], in test [2] and in test [3] were 10 to 100 nM, 100 to 1000 nM and 100 to 1000 nM, respectively.

Consider `CC(C)n1cnnc1-c1ccc(Nc2cn(-c3c(Cl)cccc3Cl)nc2C(N)=O)cn1` [compound 400, 1-(2,6-dichlorophenyl)-4-((6-(4-isopropyl-4H-1,2,4-triazol-3-yl)pyridin-3-yl)amino)-1H-pyrazole-3-carboxamide], for which the IC50 in test [1] was 10 to 100 nM; in test [4], 100 to 1000 nM; in test [5] it was 100 to 1000 nM; in test [3], 100 to 1000 nM.

Regarding `NC(=O)c1nn(-c2c(Cl)cccc2Cl)cc1Nc1cnc(C(=O)N2CC[C@@H](F)C2)cn1` [compound 403, (R)-1-(2,6-dichlorophenyl)-4-((5-(3-fluoropyrrolidine-1-carbonyl)pyrazin-2-yl)amino)-1H-pyrazole-3-carboxamide], the IC50 in test [1] and in test [2] was 100 to 1000 nM each time.

For `NC(=O)c1nn(-c2c(Cl)cccc2Cl)cc1Nc1ccc(-c2nncn2/C=C/F)cc1` [compound 415, (E)-1-(2,6-dichlorophenyl)-4-((4-(4-(2-fluorovinyl)-4H-1,2,4-triazol-3-yl)phenyl)amino)-1H-pyrazole-3-carboxamide], the IC50 was less than 10 nM in test [1], 100 to 1000 nM in test [4], 100 to 1000 nM in test [5] and 10 to 100 nM in test [3].

Take `CCn1cnnc1-c1ccc(Nc2cn(-c3c(Cl)ccc(F)c3Cl)nc2C(N)=O)cc1` [compound 418, 1-(2,6-dichloro-3-fluorophenyl)-4-((4-(4-ethyl-4H-1,2,4-triazol-3-yl)phenyl)amino)-1H-pyrazole-3-carboxamide]: the IC50 in test [1] is 10 to 100 nM; in test [4] it was 100 to 1000 nM; in test [5] it was 100 to 1000 nM; in test [3], 10 to 100 nM.

For `NC(=O)c1nn(-c2c(Cl)cccc2Cl)cc1Nc1ccc(C(=O)NCCF)cc1` [compound 421, 1-(2,6-dichlorophenyl)-4-((4-((2-fluoroethyl)carbamoyl)phenyl)amino)-1H-pyrazole-3-carboxamide], the IC50 lay in the range of 10 to 100 nM in test [1], 100 to 1000 nM in test [4], 100 to 1000 nM in test [5] and 10 to 100 nM in test [3].

Turning to `NC(=O)c1nn(-c2c(Cl)cccc2Cl)cc1Nc1ccc(C(=O)N2CC(O)C2)cc1` [compound 426, 1-(2,6-dichlorophenyl)-4-((4-(3-hydroxyazetidine-1-carbonyl)phenyl)amino)-1H-pyrazole-3-carboxamide], the IC50 in test [1] was less than 10 nM; in test [4], 100 to 1000 nM; in test [5], 100 to 1000 nM; in test [3] it was 10 to 100 nM.

Take `Cc1cncc2nnc(-c3ccc(Nc4cn(-c5c(Cl)cccc5Cl)nc4C(N)=O)cn3)n12` [compound 436, 1-(2,6-dichlorophenyl)-4-((6-(5-methyl-[1,2,4]triazolo[4,3-a]pyrazin-3-yl)pyridin-3-yl)amino)-1H-pyrazole-3-carboxamide]: the IC50 in test [1] was 10 to 100 nM; in test [4] it was 100 to 1000 nM; in test [5], 100 to 1000 nM; in test [3] it was less than 10 nM.

For `N#Cc1cccc(F)c1-n1cc(Nc2ccc(C(=O)N3CC[C@@H](F)C3)cc2)c(C(N)=O)n1` [compound 450, (R)-1-(2-cyano-6-fluorophenyl)-4-((4-(3-fluoropyrrolidine-1-carbonyl)phenyl)amino)-1H-pyrazole-3-carboxamide], the IC50 in test [1] was less than 10 nM; in test [4], 100 to 1000 nM; in test [5] it was 100 to 1000 nM; in test [3], 10 to 100 nM.

Consider `CC1(C)CN(C(=O)c2ccc(Nc3cn(-c4c(Cl)cccc4Cl)nc3C(N)=O)cc2)C1` [compound 456, 1-(2,6-dichlorophenyl)-4-((4-(3,3-dimethylazetidine-1-carbonyl)phenyl)amino)-1H-pyrazole-3-carboxamide], for which the half-maximal inhibitory concentration (IC50) in test [1] is less than 10 nM; in test [4], 100 to 1000 nM; in test [5], 100 to 1000 nM; in test [3], 10 to 100 nM.

Turning to `CN=S1(=O)CCN(C(=O)c2ccc(Nc3cn(-c4c(Cl)cccc4Cl)nc3C(N)=O)cc2)CC1` [compound 466, 1-(2,6-dichlorophenyl)-4-((4-(1-(methylimino)-1-oxidothiomorpholine-4-carbonyl)phenyl)amino)-1H-pyrazole-3-carboxamide], the IC50 in test [1] is less than 10 nM; in test [4] it was 100 to 1000 nM; in test [5], 100 to 1000 nM; in test [3], 10 to 100 nM.

As to `NC(=O)c1nn(-c2c(Cl)cccc2Cl)cc1Nc1ccc(-c2nnc3cncc(C(F)(F)F)n23)nc1` [compound 472, 1-(2,6-dichlorophenyl)-4-((6-(5-(trifluoromethyl)-[1,2,4]triazolo[4,3-a]pyrazin-3-yl)pyridin-3-yl)amino)-1H-pyrazole-3-carboxamide], the IC50 is 10 to 100 nM in test [1], 100 to 1000 nM in test [4], 100 to 1000 nM in test [5] and 10 to 100 nM in test [3].
